One assay concerns A549. As to the kind of experiment: Antiproliferative activity against human A549 cells after 48 hrs by MTT assay. In kind it is functional, cell-based. The note with it: A549, 48 h.
The subject of a further assay is MCF7. Put plainly: Antiproliferative activity against human MCF7 cells after 48 hrs by MTT assay. It counts as functional, cell-based. The note with it: MCF7, 48 h. A general note: Tetrazolium dyes change colour on reduction, which living cells bring about.
A further assay relates to HeLa. Put plainly: Antiproliferative activity against human HeLa cells after 48 hrs by MTT assay. In kind it is functional, cell-based.
The test system of assay [1] is Calf thymus DNA. Put plainly: Binding affinity to calf thymus DNA assessed as DNA intercalation by measuring increase in viscosity at 5 uM by Ostwald viscometric method. It counts as nucleic-acid assay. The note with it: Bos taurus.
Another assay deals with HEK293. Put plainly: Antiproliferative activity against HEK293 cells after 48 hrs by MTT assay. In kind it is cell-based. The note with it: Homo sapiens, HEK293, 48 h.
For assay [2], the system named is Calf thymus DNA. Put plainly: Binding affinity to calf thymus DNA assessed as hypochromicity at 10 uM by UV-Visible spectrophotometric method. In kind it is nucleic-acid assay. The note with it: Bos taurus.
Assay [3] concerns Calf thymus DNA. As to the kind of experiment: Binding affinity to calf thymus DNA assessed as hypochromicity shift at 10 uM by fluorescence spectral analysis. In kind it is nucleic-acid assay. Conditions: Bos taurus.
The subject of assay [4] is Calf thymus DNA. As to the kind of experiment: Binding affinity to calf thymus DNA assessed as hypochromicity shift in positive band at DNA to compound ratio of 1:1 by CD spectral analysis. In kind it is nucleic-acid assay. The note with it: Bos taurus.
Assay [5] has as its system Calf thymus DNA. As to the kind of experiment: Binding affinity to calf thymus DNA assessed as hypochromicity shift in positive band at DNA to compound ratio of 1:2 by CD spectral analysis. In kind it is nucleic-acid assay. Conditions: Bos taurus.
Assay [6] deals with Calf thymus DNA. As to the kind of experiment: Binding affinity to calf thymus DNA assessed as hypochromicity shift in negative band at DNA to compound ratio of 1:1 to 1:2 by CD spectral analysis. It counts as nucleic-acid assay. Conditions: Bos taurus.
The test system of assay [7] is Calf thymus DNA. As to the kind of experiment: Binding affinity to calf thymus DNA assessed as DNA intercalation by measuring increase in viscosity at 15 uM by Ostwald viscometric method. In kind it is nucleic-acid assay. Conditions: Bos taurus.
The target in assay [8] is T1, DNA topoisomerase 1 (Homo sapiens) (UniProt P11387).
T1 sequence (whole entry): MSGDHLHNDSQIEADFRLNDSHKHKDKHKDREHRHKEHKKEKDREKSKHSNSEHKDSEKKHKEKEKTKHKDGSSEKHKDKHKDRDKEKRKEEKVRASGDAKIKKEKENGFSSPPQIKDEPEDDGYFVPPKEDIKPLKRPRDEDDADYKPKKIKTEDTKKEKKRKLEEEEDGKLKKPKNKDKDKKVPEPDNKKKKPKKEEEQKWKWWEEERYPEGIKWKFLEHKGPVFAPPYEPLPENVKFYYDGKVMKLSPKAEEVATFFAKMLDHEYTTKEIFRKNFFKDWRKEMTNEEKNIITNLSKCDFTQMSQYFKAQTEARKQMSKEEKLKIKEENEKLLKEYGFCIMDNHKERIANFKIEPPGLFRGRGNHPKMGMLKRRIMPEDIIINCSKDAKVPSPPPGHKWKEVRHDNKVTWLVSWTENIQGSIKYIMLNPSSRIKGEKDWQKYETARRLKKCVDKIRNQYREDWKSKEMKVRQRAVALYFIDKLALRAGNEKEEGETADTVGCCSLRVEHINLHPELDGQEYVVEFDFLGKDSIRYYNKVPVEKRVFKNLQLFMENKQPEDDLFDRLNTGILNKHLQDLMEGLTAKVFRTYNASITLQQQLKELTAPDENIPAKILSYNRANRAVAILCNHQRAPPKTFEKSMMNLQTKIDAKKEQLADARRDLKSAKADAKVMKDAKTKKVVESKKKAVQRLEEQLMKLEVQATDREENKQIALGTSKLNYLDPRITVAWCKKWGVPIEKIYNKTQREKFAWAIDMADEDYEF
Put plainly: Inhibition of topoisomerase-1 (unknown origin) at 100 uM using pBR322 DNA as substrate after 30 mins by agarose gel electrophoresis method.

Activity calls are given as the source filed them. The calls are words filed in the database; no cut-off is given here.

The IC50 is the point on the concentration scale where inhibition reaches its midpoint. A lower IC50 goes with greater potency.

For the molecule `Cc1cccc(-c2nn(-c3ccccc3)cc2C(Nc2nc3ccccc3s2)c2c(O)ccc3ccccc23)c1` (stereo unspecified), the IC50 turned out to be 18.5 µM in the assay with A549, 17.3 µM with MCF7 and 7.02 µM with HeLa.

Take `COc1ccc2nc(NC(c3cn(-c4ccccc4)nc3-c3cccc(I)c3)c3c(O)ccc4ccccc34)sc2c1` (stereo unspecified): the half-inhibitory concentration (IC50) in the assay with A549 came out at 39.3 µM; in the assay with MCF7 it was 20 µM; in the assay with HeLa it was 6.24 µM.

With `CN1CCN(c2ccc3[nH]c(-c4ccc5[nH]c(-c6ccc(O)cc6)nc5c4)nc3c2)CC1`, in the assay on Calf thymus DNA [1], the outcome was inactive.

As to `Oc1ccc2ccccc2c1C(Nc1nc2ccccc2s1)c1cn(-c2ccccc2)nc1-c1ccccc1` (stereo unspecified), the IC50 in the assay with A549 amounted to 36.2 µM; with MCF7, 48.9 µM; in the assay on HeLa, 17.3 µM.

Consider `COc1cccc(-c2nn(-c3ccccc3)cc2C(Nc2nc3ccc(Cl)cc3s2)c2c(O)ccc3ccccc23)c1` (stereo unspecified), for which the values for the half-inhibitory concentration (IC50) in the assay on A549, in the assay on MCF7 and in the assay on HeLa were 49.8 µM, 36 µM and 30 µM, respectively.

With `O=[N+]([O-])c1cccc(-c2nn(-c3ccccc3)cc2C(Nc2nc3ccccc3s2)c2c(O)ccc3ccccc23)c1` (stereo unspecified), the IC50 in the assay with A549 turned out to be 32 µM; in the assay with MCF7 it was 43.9 µM; with HeLa, 8.22 µM.

As to `COc1ccc2nc(NC(c3cn(-c4ccccc4)nc3-c3ccccc3)c3c(O)ccc4ccccc34)sc2c1` (stereo unspecified), the IC50 in the assay with A549 was 44.6 µM; in the assay on MCF7 it was 40.8 µM; with HeLa it was 8.29 µM.

On to `CN1CCN(c2ccc3nc(-c4ccc5nc(-c6ccc(O)cc6)[nH]c5c4)[nH]c3c2)CC1`, for which the values for the IC50 in the assay with MCF7 and in the assay with HeLa were 48.1 µM and 23.5 µM, respectively.

For the molecule `O=[N+]([O-])c1ccc(-c2nn(-c3ccccc3)cc2C(Nc2nc3ccccc3s2)c2c(O)ccc3ccccc23)cc1` (stereo unspecified), the half-maximal inhibitory concentration (IC50) is 41.2 µM in the assay with A549, 14.7 µM in the assay with MCF7 and 6.81 µM with HeLa.

As for `COc1ccc(-c2nn(-c3ccccc3)cc2C(Nc2nc3ccccc3s2)c2c(O)ccc3ccccc23)cc1` (stereo unspecified), the IC50 with A549 turned out to be 26.2 µM; with MCF7, 17.5 µM; in the assay on HeLa, 9.34 µM.

Regarding `Cc1ccc(-c2nn(-c3ccccc3)cc2C(Nc2nc3cc(C)c(C)cc3s2)c2c(O)ccc3ccccc23)cc1` (stereo unspecified), the IC50 with A549 worked out at 31.2 µM; in the assay on MCF7, 22.4 µM; in the assay with HeLa it was 17.8 µM.

Turning to `O=[N+]([O-])c1cccc(-c2nn(-c3ccccc3)cc2C(Nc2nc3ccc(Cl)cc3s2)c2c(O)ccc3ccccc23)c1` (stereo unspecified), the half-inhibitory concentration (IC50) in the assay on A549 worked out at 42.5 µM; in the assay with MCF7, 19.7 µM; with HeLa it was 15.5 µM.

Consider `Cc1ccc2nc(NC(c3cn(-c4ccccc4)nc3-c3cccc(Cl)c3)c3c(O)ccc4ccccc34)sc2c1` (stereo unspecified), for which the results for the IC50 in the assay on A549, with MCF7 and in the assay on HeLa were 45.4 µM, 49.7 µM and 9.43 µM, respectively.

For `O=[N+]([O-])c1ccc(-c2nn(-c3ccccc3)cc2C(Nc2nc3ccc(Cl)cc3s2)c2c(O)ccc3ccccc23)cc1` (stereo unspecified), the IC50 in the assay with A549 came to 57.2 µM; in the assay on MCF7 it was 38.6 µM; with HeLa, 13.4 µM.

As to `Oc1ccc2ccccc2c1C(Nc1nc2ccc(Cl)cc2s1)c1cn(-c2ccccc2)nc1-c1ccc(Cl)cc1` (stereo unspecified), the half-maximal inhibitory concentration (IC50) was 54.1 µM in the assay with A549, 27.5 µM with MCF7 and 36.8 µM in the assay with HeLa.

In the case of `Oc1ccc2ccccc2c1C(Nc1nc2ccccc2s1)c1cn(-c2ccccc2)nc1-c1cccc(Cl)c1` (stereo unspecified), the IC50 in the assay on A549 is 20.4 µM; with MCF7, 20.7 µM; in the assay on HeLa, 6.83 µM.

Consider `CC[n+]1c(-c2ccccc2)c2cc(N)ccc2c2ccc(N)cc21`, for which the outcome in the assay on Calf thymus DNA [1] was Active.

`Cc1ccc2nc(NC(c3cn(-c4ccccc4)nc3-c3cccc([N+](=O)[O-])c3)c3c(O)ccc4ccccc34)sc2c1` (stereo unspecified): the results for the IC50 in the assay on A549, in the assay on MCF7 and in the assay on HeLa were 57.4 µM, 38.4 µM and 7.36 µM, respectively.

With `Cc1ccc(-c2nn(-c3ccccc3)cc2C(Nc2nc3ccccc3s2)c2c(O)ccc3ccccc23)cc1` (stereo unspecified), the IC50 in the assay on A549 is 57.4 µM; with MCF7 it was 13.1 µM; in the assay with HeLa, 8.05 µM.

Regarding `COc1cccc(-c2nn(-c3ccccc3)cc2C(Nc2nc3ccc(OC)cc3s2)c2c(O)ccc3ccccc23)c1` (stereo unspecified), the IC50 in the assay on A549 turned out to be 88.1 µM; in the assay with MCF7, 62.6 µM; in the assay on HeLa it was 10.5 µM.

With `Oc1ccc2ccccc2c1C(Nc1nc2ccc(Cl)cc2s1)c1cn(-c2ccccc2)nc1-c1ccc(I)cc1` (stereo unspecified), the IC50 in the assay on A549 turned out to be 29 µM; in the assay on MCF7, 65 µM; with HeLa, 12.1 µM.

`COc1ccc2nc(NC(c3cn(-c4ccccc4)nc3-c3cccc([N+](=O)[O-])c3)c3c(O)ccc4ccccc34)sc2c1` (stereo unspecified): the IC50 with A549 is 52.1 µM; in the assay on MCF7, 26.8 µM; in the assay with HeLa, 6.14 µM.

In the case of `Oc1ccc2ccccc2c1C(Nc1nc2ccc(Cl)cc2s1)c1cn(-c2ccccc2)nc1-c1cccc(Cl)c1` (stereo unspecified), the IC50 with A549 worked out at 33.3 µM; in the assay on MCF7, 17.5 µM; with HeLa it was 18.3 µM.

On to `Oc1ccc2ccccc2c1C(Nc1nc2ccccc2s1)c1cn(-c2ccccc2)nc1-c1ccc(I)cc1` (stereo unspecified), for which the figures for the IC50 in the assay on A549, with MCF7 and in the assay on HeLa were 23.1 µM, 18.9 µM and 6.59 µM, respectively.

In the case of `COc1ccc2nc(NC(c3cn(-c4ccccc4)nc3-c3ccc([N+](=O)[O-])cc3)c3c(O)ccc4ccccc34)sc2c1` (stereo unspecified), the IC50 with A549 was 22.5 µM; in the assay on MCF7 it was 13.3 µM; in the assay on HeLa, 5.54 µM; in the assay with HEK293 it was 46.5 µM. Besides, the outcome with Calf thymus DNA [2], with Calf thymus DNA [4], with Calf thymus DNA [5] and in the assay with Calf thymus DNA [6] was Active. In the assay on Calf thymus DNA [3], the Activity stood at 337 nm. Moreover, the result in the assay on Calf thymus DNA [7] was inactive. Also, the inhibition entry in assay [8] is “Active”.

For `Cc1ccc2nc(NC(c3cn(-c4ccccc4)nc3-c3ccc([N+](=O)[O-])cc3)c3c(O)ccc4ccccc34)sc2c1` (stereo unspecified), the IC50 with A549 was 29 µM; in the assay with MCF7, 20.7 µM; with HeLa, 7.04 µM.

On to `Oc1ccc2ccccc2c1C(Nc1nc2ccc(Cl)cc2s1)c1cn(-c2ccccc2)nc1-c1ccccc1` (stereo unspecified), for which the IC50 in the assay on A549 came to 51.1 µM; in the assay with MCF7, 36.3 µM; in the assay with HeLa it was 12.5 µM.

On to `Oc1ccc2ccccc2c1C(Nc1nc2ccc(Cl)cc2s1)c1cn(-c2ccccc2)nc1-c1ccc(F)cc1` (stereo unspecified), for which the IC50 with A549 was determined as 32.1 µM; with MCF7, 21.6 µM; in the assay with HeLa, 30.1 µM.

Turning to `Cc1cc2nc(NC(c3cn(-c4ccccc4)nc3-c3ccc([N+](=O)[O-])cc3)c3c(O)ccc4ccccc34)sc2cc1C` (stereo unspecified), the IC50 was determined as 41.9 µM with A549, 41.1 µM with MCF7 and 14.7 µM in the assay with HeLa.

`COc1cccc(-c2nn(-c3ccccc3)cc2C(Nc2nc3ccccc3s2)c2c(O)ccc3ccccc23)c1` (stereo unspecified): the IC50 was determined as 24.8 µM with A549, 16.9 µM with MCF7 and 14.9 µM in the assay with HeLa.

For `COc1ccc(-c2nn(-c3ccccc3)cc2C(Nc2nc3ccc(OC)cc3s2)c2c(O)ccc3ccccc23)cc1` (stereo unspecified), the IC50 with A549 came out at 28.1 µM; in the assay on MCF7, 41.8 µM; with HeLa it was 9.24 µM.

The record behind these values is ChEMBL document CHEMBL4330150, “Synthesis and biological evaluation of pyrazole linked benzothiazole-β-naphthol derivatives as topoisomerase I inhibitors with DNA binding ability” (Bioorg Med Chem, 2019).
